Data set [1] deals with macrophages infected by M. tuberculosis. The data set is described as follows: Potentiation of ethionamide cell test (HCS). Format: cell-based. The settings on record: ligand concentration necessary to potentiate ten times the activity of ethionamide (inhibit 50% of bacterial growth), constant ethionamide 0.1 μg/mL (1/10th of its CMI99).
The nature of the next data set: physchem. Format: physicochemical. The settings on record: pH 7.4, aqueous buffer, kinetic from dmso stock. How it is done:
40 μL of a 10 mM solution in DMSO of the sample are added to 1.96 mL MeOH or PBS at pH 7.4. The samples are then agitated during 24 h at RT, centrifuged during 5 min and then filtrated on filters of 0.45 μm pore size. 20 μL of each solution are then added to 180 μL MeOH and then analyzed by LC-MS. The solubility is determined as ratio of the surfaces of the mass signals PBS/MeOH.

Molecules are shown by their SMILES. Values after ≈ are worked out from the molar mass of the structure shown.

For `O=C(CCC(F)(F)F)N1CCC2(CC1)CC(c1ccc3c(c1)OCO3)=NO2` [Compound 18], the EC50 in data set [1] was 1300 nM.

Regarding `Cc1ccc(C2=NOC3(CCN(C(=O)CCC(F)(F)F)CC3)C2)cc1` [Compound 11], the 50% effective concentration (EC50) in data set [1] was 2500 nM.

Turning to `O=C(CCC(F)(F)F)N1CCC2(CC1)CC(c1ccc(F)cc1)=NO2` [Compound 22], in data set [1], the EC50 was determined as 500 nM.

Take `O=C(CCCC(F)(F)F)N1CCC2(CC1)CC(c1nccs1)=NO2` [Compound 9]: in data set [1], the EC50 is 70 nM.

In the case of `CC(C)CCC(=O)N1CCC2(CC1)CC(c1ccccc1Cl)=NO2` [Compound 46], the EC50 in data set [1] is 1300 nM.

For `O=C(CCC(F)(F)F)N1CCC2(CC1)CC(c1ccc(Cl)cc1)=NO2` [Compound 21], in data set [1], the EC50 turned out to be 5800 nM.

Consider `O=C(CCc1ccccc1)N1CCC2(CC1)CC(c1ccccc1)=NO2` [Compound 59], for which the 50% effective concentration (EC50) in data set [1] came to 1000 nM.

Turning to `CC(C)CCC(=O)N1CCC2(CC1)CC(c1cccs1)=NO2` [Compound 8], the EC50 in data set [1] was 130 nM.

`O=C(CCC(F)(F)F)N1CCC2(CC1)CC(c1cccs1)=NO2` [Compound 6]: the EC50 in data set [1] turned out to be 30 nM.

As for `COc1cccc(C2=NOC3(CCN(C(=O)CCC(F)(F)F)CC3)C2)c1` [Compound 15], the EC50 in data set [1] amounted to 290 nM.

`O=C(CCC(F)(F)F)N1CCC2(CC(c3ccccc3)=NO2)C1` (stereo not shown) [Compound 4]: in data set [1], the EC50 was 530 nM.

As to `O=C(CCC(F)(F)F)N1CCC2(CC1)CC(c1ccccn1)=NO2` [Compound 31], in data set [1], the EC50 worked out at 150 nM.

Turning to `O=C(CCCC(F)(F)F)N1CCC2(CC1)CC(c1ccccc1Cl)=NO2` [Compound 50], the EC50 in data set [1] was 770 nM.

As for `CC(C)CCC(=O)N1CCC2(CC1)CC(c1ccccc1)=NO2` [Compound 32], in data set [1], the EC50 was determined as 5000 nM.

Take `O=C(CCC(F)(F)F)N1CCC2(CC1)CC(C1CCCC1)=NO2` [Compound 28]: in data set [1], the EC50 was 80 nM.

As for `O=C(CCC(F)(F)F)N1CCC2(CC1)CC(c1ccccc1Cl)=NO2` [Compound 20], the concentration for a half-maximal effect (EC50) in data set [1] was found to be 30 nM.

Take `O=C(CCC(F)(F)F)N1CCC2(CC1)CC(C1CCCCC1)=NO2` [Compound 27]: in data set [1], the EC50 amounted to 80 nM.

As to `O=C(CCC(F)(F)F)N1CCC2(CC1)CC(Cc1ccccc1)=NO2` [Compound 29], the EC50 in data set [1] came to 20 nM.

With `O=C(CCC(F)(F)F)N1CCC2(CC1)CC(c1ccco1)=NO2` [Compound 30], in data set [1], the EC50 was determined as 50 nM.

Consider `O=C(CCC(F)(F)F)N1CC2(CC(c3ccccc3)=NO2)C1` [Compound 5], for which the concentration giving a half-maximal response (EC50) in data set [1] amounted to 110 nM.

`O=C(CCC(F)(F)F)N1CCC2(CC1)CC(c1cccc(C(F)(F)F)c1)=NO2` [Compound 23]: the EC50 in data set [1] worked out at 400 nM.

In the case of `O=C(CCCC(F)(F)F)N1CCC2(CC1)CC(c1ccccc1)=NO2` [Compound 51], the EC50 in data set [1] is 1000 nM.

With `O=C(CCC(F)(F)F)N1CCC2(CC1)CC(c1ccccc1)=NO2` [Compound 10], the EC50 in data set [1] came to 20 nM. The concentration in solution in the data set “physchem” (solubility at 24 h) was 150 µM (≈ 51.1 µg/mL).

In the case of `COc1ccccc1C1=NOC2(CCN(C(=O)CCC(C)C)CC2)C1` [Compound 49], the EC50 in data set [1] was found to be 630 nM.

For `CC(C)CCC(=O)N1CCC2(CC1)CC(c1ccccn1)=NO2` [Compound 45], the EC50 in data set [1] came out at 1300 nM.

In the case of `COc1ccccc1C1=NOC2(CCN(C(=O)CCC(F)(F)F)CC2)C1` [Compound 14], the EC50 in data set [1] came out at 20 nM.

For `O=C(CCC(F)(F)F)N1CCC2(CC1)CC(c1nccs1)=NO2` [Compound 7], the EC50 in data set [1] came out at 40 nM.

The record behind these values is US10174050B2, “Spiroisoxazoline compounds having an activity potentiating the activity of an antibiotic” (priority 2012, dated 2019).
